Experimental findings from patent US6214838A, “Thienodipyridine derivatives, production and use thereof” (Takeda Chemical Industries, Ltd., priority 1998, dated 2001) are described below.

One data set deals with Rat Adjuvant Arthritis. Put plainly: Action Against Rat Adjuvant Arthritis (paw swelling suppression). Format: in vivo, rat (male Lewis). Particulars: 3.13 mg/kg once daily for 14 days, suspension in 0.5% methyl cellulose; left hind paw volume at day 14; N=6; **: p < 0.05 vs control (Dunnett's test).
Data set [1] can be described thus: Stability Against Metabolism by Liver Microsome. Particulars: dog liver microsome, NADPH-producing system, phosphate buffer pH 7.4, 37° C.; n=2, mean. The data set is classed as in vitro ADME. As to the method: Stability Against Metabolism by Liver Microsome:
A dog liver microsome was prepared by a standard method. In a phosphate buffer (pH 7.4), a test substance, a liver microsome and NADPH-producing system [0.5 mM, β-NADP (NADP: nicotinamide adenine dinucleotide phosphate), 1 mM magnesium chloride, 5 mM glucose-6-phosphate, 150units/ml glucose-6-phosphate dehydrogenase (each as final concentration in reaction system)] were mixed and incubated at 37° C. The concentration of the test substance after the discontinuation of the reaction was determined by high pressure liquid chromatography to obtain % residue (n=2, mean).

On to `COc1ccc(-c2c(Br)c(CN3C(=O)CCC3=O)nc3sc4c(c23)CCNC4)cc1` [Example 4, 3-bromo-5,6,7,8-tetrahydro-4-(4-methoxyphenyl)-2-(succinimidomethyl)thieno[2,3-b:5,4-c']dipyridine], for which the “Swelling suppression rate (%)” value in the data set with Rat Adjuvant Arthritis was determined as 85%. For `CCOc1ccc(-c2c(Cl)c(CN3C(=O)CCC3=O)nc3sc4c(c23)CCNC4)cc1` [Example 11, 3-chloro-4-(4-ethoxyphenyl)-5,6,7,8-tetrahydro-2-(succinimidomethyl)thieno[2,3-b:5,4-c']dipyridine], the “Residue (%)” value in data set [1] is reported as 94.1%. Further, the “Swelling suppression rate (%)” value in the data set on Rat Adjuvant Arthritis is listed as 98%.

For `O=C1CCC(=O)N1Cc1nc2sc3c(c2c(-c2ccc(O)cc2)c1Cl)CCNC3` [Example 15, 3-chloro-4-(4-hydroxyphenyl)-5,6,7,8-tetrahydro-2-(succinimidomethyl)thieno[2,3-b:5,4-c']dipyridine], the “Residue (%)” value in data set [1] came out at 96.3%. Regarding `COc1ccc(-c2c(Cl)c(CN3C(=O)CCC3=O)nc3sc4c(c23)CCNC4)cc1OC` [Example 2, 3-chloro-4-(3,4-dimethoxyphenyl)-5,6,7,8-tetrahydro-2-(succinimidomethyl)thieno[2,3-b:5,4-c']dipyridine], the “Residue (%)” value in data set [1] worked out at 87.8%. Also, in the data set with Rat Adjuvant Arthritis, the “Swelling suppression rate (%)” value is 92%. Turning to `COc1cc(-c2c(Cl)c(CN3C(=O)CCC3=O)nc3sc4c(c23)CCN(C(C)=O)C4)ccc1O` [Example 22, 7-acetyl-3-chloro-5,6,7,8-tetrahydro-4-(4-hydroxy-3-methoxyphenyl)-2-(succinimidomethyl)thieno[2,3-b:5,4-c']dipyridine], in the data set on Rat Adjuvant Arthritis, the “Swelling suppression rate (%)” value worked out at 75%. Still for that read-out and setting: for `COc1ccc(-c2c(Cl)c(CN3C(=O)CCC3=O)nc3sc4c(c23)CCN(C(C)=O)C4)cc1OC` [Example 18, 7-acetyl-3-chloro-4-(3,4-dimethoxyphenyl)-5,6,7,8-tetrahydro-2-(succinimidomethyl)thieno[2,3-b:5,4-c']dipyridine] the value was 92%. Regarding `COc1ccc(-c2c(Cl)c(CN3C(=O)CCC3=O)nc3sc4c(c23)CCNC4)cc1` [Example 1, 3-chloro-5,6,7,8-tetrahydro-4-(4-methoxyphenyl)-2-(succinimidomethyl)thieno[2,3-b:5,4-c']dipyridine], in data set [1], the “Residue (%)” value is given as 90.5%. In the data set with Rat Adjuvant Arthritis, the “Swelling suppression rate (%)” value is listed as 94%.
